From ChEMBL document CHEMBL1806463, “Synthesis, biological evaluation and docking studies of octane-carboxamide based renin inhibitors with extended segments toward S3' site of renin” (Bioorg Med Chem, 2011) come the findings set out here.

SMILES strings stand for the structures.

For the first assay, the target named is T1, Renin (Homo sapiens, UniProt P00797).
T1 sequence (P00797 whole entry): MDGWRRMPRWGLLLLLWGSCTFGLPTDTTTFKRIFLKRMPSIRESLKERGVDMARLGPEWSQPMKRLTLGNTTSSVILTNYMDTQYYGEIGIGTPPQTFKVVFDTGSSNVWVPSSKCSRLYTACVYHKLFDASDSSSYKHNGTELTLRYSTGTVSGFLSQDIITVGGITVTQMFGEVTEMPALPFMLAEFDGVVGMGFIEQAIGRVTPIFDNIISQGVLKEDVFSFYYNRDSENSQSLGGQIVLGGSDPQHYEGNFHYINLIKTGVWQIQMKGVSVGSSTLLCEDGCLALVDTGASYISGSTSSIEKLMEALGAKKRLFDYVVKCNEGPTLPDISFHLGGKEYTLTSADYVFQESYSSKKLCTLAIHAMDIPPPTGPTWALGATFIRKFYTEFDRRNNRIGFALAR
Description: Inhibition of renin measured every 30 secs for 15 mins by fluorimetric analysis.
The IC50 is the midpoint of a concentration-inhibition curve. Lower therefore signals higher potency. For the molecule `COCCCOc1cc(C[C@@H](C[C@H](N)[C@@H](O)C[C@H](C(=O)NCC(C)(C)CNC(=O)N(C)C)C(C)C)C(C)C)ccc1OC`, the midpoint of inhibition, the IC50, lay at 0.36 nM.
`COCCCOc1cc(C[C@@H](C[C@H](N)[C@@H](O)C[C@H](C(=O)NCC(C)(C)CNC(=O)C(F)(F)F)C(C)C)C(C)C)ccc1OC` gave an IC50 of 4.85 nM.
Turning to `COCCCOc1cc(C[C@@H](C[C@H](N)[C@@H](O)C[C@H](C(=O)NCC(C)(C)CNC(=O)c2ccc(OC)cc2)C(C)C)C(C)C)ccc1OC`, 3.84 nM corresponded to half-maximal inhibition (IC50).
On to `COCCCOc1cc(C[C@@H](C[C@H](N)[C@@H](O)C[C@H](C(=O)NCC(C)(C)CNC(=O)Cc2ccccc2)C(C)C)C(C)C)ccc1OC`, for which it took 1.64 nM to reach half-maximal inhibition (IC50).
As to `COCCCOc1cc(C[C@@H](C[C@H](N)[C@@H](O)C[C@H](C(=O)NCC(C)(C)CN)C(C)C)C(C)C)ccc1OC`, the midpoint of inhibition, the IC50, lay at 2.88 nM.
For the molecule `COCCCOc1cc(C[C@@H](C[C@H](N)[C@@H](O)C[C@H](C(=O)NCC(C)(C)CNS(=O)(=O)c2ccc(C)cc2)C(C)C)C(C)C)ccc1OC`, the concentration for half-maximal inhibition (IC50) came to 1.15 nM.
Regarding `CCCCCC(=O)NCC(C)(C)CNC(=O)[C@@H](C[C@H](O)[C@@H](N)C[C@H](Cc1ccc(OC)c(OCCCOC)c1)C(C)C)C(C)C`, half-maximal inhibition (IC50) was put at 0.83 nM.
On the same count and under the same terms, the same measure for `COCCCOc1cc(C[C@@H](C[C@H](N)[C@@H](O)C[C@H](C(=O)NCC(C)(C)Cn2ccnn2)C(C)C)C(C)C)ccc1OC`: 0.2 nM; for `COCCCOc1cc(C[C@@H](C[C@H](N)[C@@H](O)C[C@H](C(=O)NCC(C)(C)CNS(N)(=O)=O)C(C)C)C(C)C)ccc1OC`: 0.79 nM.
Regarding `COCCCOc1cc(C[C@@H](C[C@H](N)[C@@H](O)C[C@H](C(=O)NCC(C)(C)CNC(=O)C(C)(C)C)C(C)C)C(C)C)ccc1OC`, the midpoint of inhibition, the IC50, lay at 4.13 nM.
Take `COCCCOc1cc(C[C@@H](C[C@H](N)[C@@H](O)C[C@H](C(=O)NCC(C)(C)CNS(C)(=O)=O)C(C)C)C(C)C)ccc1OC`: it took 4.23 nM to reach half-maximal inhibition (IC50).
Consider `COCCCOc1cc(C[C@@H](C[C@H](N)[C@@H](O)C[C@H](C(=O)NCC(C)(C)CNC(=O)c2ccccc2)C(C)C)C(C)C)ccc1OC`, for which the IC50 was 1.02 nM.
Molecule `CCCC(=O)NCC(C)(C)CNC(=O)[C@@H](C[C@H](O)[C@@H](N)C[C@H](Cc1ccc(OC)c(OCCCOC)c1)C(C)C)C(C)C` returned an IC50 of 1.12 nM.
The same measure, in the same setting: the same measure for `COCCCOc1cc(C[C@@H](C[C@H](N)[C@@H](O)C[C@H](C(=O)NCC(C)(C)CNC(=O)CC(C)C)C(C)C)C(C)C)ccc1OC`: 1.48 nM.
`CCOC(=O)NCC(C)(C)CNC(=O)[C@@H](C[C@H](O)[C@@H](N)C[C@H](Cc1ccc(OC)c(OCCCOC)c1)C(C)C)C(C)C` registered an IC50 of 0.81 nM.
On to `CCC(=O)NCC(C)(C)CNC(=O)[C@@H](C[C@H](O)[C@@H](N)C[C@H](Cc1ccc(OC)c(OCCCOC)c1)C(C)C)C(C)C`, for which half-maximal inhibition (IC50) was put at 1.08 nM.
In turn, `CCS(=O)(=O)NCC(C)(C)CNC(=O)[C@@H](C[C@H](O)[C@@H](N)C[C@H](Cc1ccc(OC)c(OCCCOC)c1)C(C)C)C(C)C` registered an IC50 of 0.91 nM.

The target in another assay is T2, Renin (Homo sapiens) (UniProt P00797).
T2 sequence (whole entry): T1 sequence (P00797 whole entry)
The experiment in a line: Ratio IC50 for aliskiren to compound for renin.
Regarding `COCCCOc1cc(C[C@@H](C[C@H](N)[C@@H](O)C[C@H](C(=O)NCC(C)(C)Cn2ccnn2)C(C)C)C(C)C)ccc1OC`, the Ratio IC50 was 10.
